Laboratory results published in patent US10190104B2, “Isoform of anaplastic lymphoma kinase and its uses” (Memorial Sloan-Kettering Cancer Center, priority 2014, dated 2019).

System: ALK-transformed Ba/F3 cells
Experiment: Cell viability assay of Ba/F3 cells expressing ALK isoforms treated with ALK inhibitors
Type: cell-based, murine
Conditions: cell viability after 72 hours; for IL-3-independent growth of ALK-transformed Ba/F3 cells: absence of IL-3, CellTiter-Glo; for growth in the presence of IL-3: presence of IL-3 (1 ng/ml)
Protocol: Ba/F3 cells were stably transduced with MSCV-ALK^variant-IRES-GFP constructs with a multiplicity of infection (MOI) of ˜0.26. Based on the MOI calculations, ˜78% of cells were uninfected, ˜20% of cells were infected with one virus particle, and ˜2% of cells were infected by more than one viral particle. Stably transduced Ba/F3 cells were cultured in RPMI medium supplemented with IL-3 (1 ng ml-1) and the transduction rate of 20% was validated using flow cytometry for GFP, that was co-expressed with the ALK variants. For the cell proliferation assay, transduced Ba/F3 cells were transferred into IL-3 depleted RPMI medium and cell growth was quantified every 2-4 days with a luminescence assay (#G7571, Promega). […] All drugs were suspended in DMSO. The cell viability was assessed after 72 hours by a luminescence assay CellTiter-Glo (#G7571, Promega). Results were normalized to growth of cells in a medium containing an equivalent volume of DMSO. The inhibition curve was determined with GraphPad Prism 6.0 software using the ‘log(inhibitor) vs. response variable slope’ non-linear regression model.

`COc1cc(N2CCC(N3CCN(C)CC3)CC2)ccc1Nc1ncc(Cl)c(Nc2ccccc2S(=O)(=O)C(C)C)n1` [TAE-684, NVP-TAE684] was tested, and the “IL-3-independent growth of ALK-transformed Ba/F3 cells” value was “effectively inhibited” and the “growth in the presence of IL-3” value was “no effect”.
For `Cc1cc(Nc2ncc(Cl)c(Nc3ccccc3S(=O)(=O)C(C)C)n2)c(OC(C)C)cc1C1CCNCC1` [ceritinib], the “IL-3-independent growth of ALK-transformed Ba/F3 cells” value was “effectively inhibited” and the “growth in the presence of IL-3” value was “no effect”.
